# Results: the supplement of paper PMC11208160
# Test: recombinant UMI read abundance after kanamycin selection (control-corrected) (log10(CPM+1)); higher = more efficient recombination; extreme values may be limits of the assay; sequences stand for … in AGTGCAGAGAAAATCGGCCAGTTTTCTCTGCCTGCAGTCCGCATGCCGTGGGACCCCTTGGGTTCTAACCTGTTGCCTAGATTTATGCAGCGGACTGCCTTTCTCCCAAAGTGATAAACCGG…AGGTTGGTTTCACT; site = the 11-nt donor
# How it was run: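 Values are reported as log10(CPM+1), obtained by converting sequencing counts to CPM, averaging replicates and scaling by control-derived factors. The counts came from recombinant UMIs amplified by PCR across the donor–target junction. These UMIs came from a pooled Escherichia coli screen of donor and donor-binding-loop pairs for the IS621 bridge recombinase, plated with IPTG (0.07 mM) plus kanamycin or left unselected, in two replicates each.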
# 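Note: IS621 bridge recombinase in Escherichia coli cells against a fixed T5 target plasmid.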
row,Sequence,recombinant UMI read abundance (log10)
1,ATGTGGGCATGGACCGGTTTTCCCGGTAATCCGTATTTGGC (site ATGTGGGCTGC),3.01
2,ATGTGGGCATGGACCGGTTTTCCCGGTAATCCGTATTTGGC (site ATGTTGGCTGC),0.0921
3,ATGTGTGCATGGACCGGTTTTCCCGGTAATCCGTATTTGAC (site ATGTGTGCTGT),2.78
4,ATGTTACCATGGACCGGTTTTCCCGGTAATCCGTATTTGGT (site ATGTTACCTAC),0.0171
5,ATTACGGCATGGACCGGTTTTCCCGGTAATCCGTATTTGGA (site ATTACGGCTTC),0.269
6,ATTACTTCATGGACCGGTTTTCCCGGTAATCCGTATTTGGG (site ATTACTTCTCC),0.434
7,ATTAGAACATGGACCGGTTTTCCCGGTAATCCGTATTTGGC (site ATTAGAACTGC),1.83
8,ATTAGAACATGGACCGGTTTTCCCGGTAATCCGTATTTGGC (site CTTAGAACTGC),1.73
9,ATTAGAACATGGACCGGTTTTCCCGGTAATCCGTATTTGGC (site GTTAGAACTGC),0
10,ATTAGAACATGGACCGGTTTTCCCGGTAATCCGTATTTGGC (site TTTAGAACTGC),1.19
11,ATTAGTGCATGGACCGGTTTTCCCGGTAATCCGTATTTGGT (site AATAGTGCTAC),0.125
12,ATTAGTGCATGGACCGGTTTTCCCGGTAATCCGTATTTGGT (site ACTAGTGCTAC),0.675
13,ATTAGTGCATGGACCGGTTTTCCCGGTAATCCGTATTTGGT (site AGTAGTGCTAC),0.243
14,ATTAGTGCATGGACCGGTTTTCCCGGTAATCCGTATTTGGT (site ATTAGTGCTAC),1.05
15,ATTCCGGCATGGACCGGTTTTCCCGGTAATCCGTATTTGCT (site ATTCCGGCTAG),0.0043
16,ATTCGAACATGGACCGGTTTTCCCGGTAATCCGTATTTGTT (site ATTCGAACTAA),0.18
17,ATTCGTGCATGGACCGGTTTTCCCGGTAATCCGTATTTGAT (site ATTCGTGCTAT),0.866

row,Sequence,recombinant UMI read abundance (log10)
1,ATTCGTGCATGGACCGGTTTTCCCGGTAATCCGTATTTGTA (site ATTCGTGCTTA),0.657
2,ATTCGTGCATGGACCGGTTTTCCCGGTAATCCGTATTTGTG (site ATTCGTGCTCA),0.309
3,ATTCTTACATGGACCGGTTTTCCCGGTAATCCGTATTTGGT (site ATTCTTACTAC),0.37
4,ATTGTATCATGGACCGGTTTTCCCGGTAATCCGTATTTGAG (site ATTGTATCTCT),1.59
5,ATTTAAACATGGACCGGTTTTCCCGGTAATCCGTATTTGAC (site ATTTAAACTGT),1.18
6,ATTTAGACATGGACCGGTTTTCCCGGTAATCCGTATTTGGT (site ATTAAGACTAC),0.513
7,ATTTAGACATGGACCGGTTTTCCCGGTAATCCGTATTTGGT (site ATTCAGACTAC),0.475
8,ATTTAGACATGGACCGGTTTTCCCGGTAATCCGTATTTGGT (site ATTGAGACTAC),0.0177
9,ATTTAGACATGGACCGGTTTTCCCGGTAATCCGTATTTGGT (site ATTTAGACTAC),0.955
10,ATTTAGGCATGGACCGGTTTTCCCGGTAATCCGTATTTGGC (site ATATAGGCTGC),1.64
11,ATTTAGGCATGGACCGGTTTTCCCGGTAATCCGTATTTGGC (site ATCTAGGCTGC),0.928
12,ATTTAGGCATGGACCGGTTTTCCCGGTAATCCGTATTTGGC (site ATGTAGGCTGC),0.42
13,ATTTAGGCATGGACCGGTTTTCCCGGTAATCCGTATTTGGC (site ATTTAGGCTGC),1.93
14,ATTTATTCATGGACCGGTTTTCCCGGTAATCCGTATTTGAG (site ATTTATTCTCT),1.61
15,ATTTCACCATGGACCGGTTTTCCCGGTAATCCGTATTTGGC (site ATTTCACCTGC),0
16,ATTTCTACATGGACCGGTTTTCCCGGTAATCCGTATTTGTC (site ATTTCTACTGA),0.00552
17,ATTTGAGCATGGACCGGTTTTCCCGGTAATCCGTATTTGCG (site ATTTGAGCTCG),0.336
